In ChEMBL document CHEMBL5465560, “Selectivity Literature for EUbOPEN Chemogenomic Library” (2024) one finds % of control, % of residual activity and % of inhibition data, which are given here for 4 compounds.

Structures are written as SMILES.

The target of assay [1] is T1, Cyclin-G-associated kinase (Homo sapiens) (UniProt O14976).
T1 sequence (whole entry): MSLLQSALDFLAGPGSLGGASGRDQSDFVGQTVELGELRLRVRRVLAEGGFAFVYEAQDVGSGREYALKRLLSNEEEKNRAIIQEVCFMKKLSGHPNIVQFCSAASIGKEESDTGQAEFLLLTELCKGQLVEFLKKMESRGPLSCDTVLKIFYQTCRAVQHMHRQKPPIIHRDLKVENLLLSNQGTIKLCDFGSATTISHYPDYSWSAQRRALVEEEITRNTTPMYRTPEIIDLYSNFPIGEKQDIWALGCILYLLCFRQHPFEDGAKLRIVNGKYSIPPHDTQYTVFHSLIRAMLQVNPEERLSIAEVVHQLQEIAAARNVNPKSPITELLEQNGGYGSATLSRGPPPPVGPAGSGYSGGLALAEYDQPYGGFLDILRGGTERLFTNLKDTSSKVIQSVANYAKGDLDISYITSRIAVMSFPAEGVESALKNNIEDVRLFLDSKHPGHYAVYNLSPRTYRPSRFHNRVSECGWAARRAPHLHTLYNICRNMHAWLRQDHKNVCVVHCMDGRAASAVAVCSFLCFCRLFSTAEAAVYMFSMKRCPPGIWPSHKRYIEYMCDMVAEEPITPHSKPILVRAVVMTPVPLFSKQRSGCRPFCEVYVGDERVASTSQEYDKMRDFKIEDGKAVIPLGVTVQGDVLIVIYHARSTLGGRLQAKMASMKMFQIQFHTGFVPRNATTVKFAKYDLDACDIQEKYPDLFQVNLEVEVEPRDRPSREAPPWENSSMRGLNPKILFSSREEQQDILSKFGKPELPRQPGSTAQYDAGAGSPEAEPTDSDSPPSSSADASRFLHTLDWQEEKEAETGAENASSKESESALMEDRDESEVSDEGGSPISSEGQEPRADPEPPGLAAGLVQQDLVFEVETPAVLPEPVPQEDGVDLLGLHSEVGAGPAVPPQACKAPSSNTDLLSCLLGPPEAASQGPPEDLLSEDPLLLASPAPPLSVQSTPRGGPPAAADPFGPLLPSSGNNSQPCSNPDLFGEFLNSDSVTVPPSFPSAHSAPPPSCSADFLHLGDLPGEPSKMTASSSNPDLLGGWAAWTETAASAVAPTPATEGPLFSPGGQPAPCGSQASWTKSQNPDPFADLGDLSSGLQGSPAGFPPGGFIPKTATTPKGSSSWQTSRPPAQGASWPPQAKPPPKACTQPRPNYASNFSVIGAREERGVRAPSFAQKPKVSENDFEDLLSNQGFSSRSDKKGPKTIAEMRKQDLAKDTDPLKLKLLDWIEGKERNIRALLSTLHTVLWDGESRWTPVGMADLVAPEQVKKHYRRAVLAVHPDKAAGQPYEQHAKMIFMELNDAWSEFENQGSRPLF
The assay is described as follows: Selectivity interaction (Ambit kinase binding assay panel) EUB0000608a GAK. The conditions noted are these: at 10 µM.

The target in assay [2] is T2, Serine/threonine-protein kinase PLK4 (Homo sapiens) (UniProt O00444).
T2 sequence (whole entry): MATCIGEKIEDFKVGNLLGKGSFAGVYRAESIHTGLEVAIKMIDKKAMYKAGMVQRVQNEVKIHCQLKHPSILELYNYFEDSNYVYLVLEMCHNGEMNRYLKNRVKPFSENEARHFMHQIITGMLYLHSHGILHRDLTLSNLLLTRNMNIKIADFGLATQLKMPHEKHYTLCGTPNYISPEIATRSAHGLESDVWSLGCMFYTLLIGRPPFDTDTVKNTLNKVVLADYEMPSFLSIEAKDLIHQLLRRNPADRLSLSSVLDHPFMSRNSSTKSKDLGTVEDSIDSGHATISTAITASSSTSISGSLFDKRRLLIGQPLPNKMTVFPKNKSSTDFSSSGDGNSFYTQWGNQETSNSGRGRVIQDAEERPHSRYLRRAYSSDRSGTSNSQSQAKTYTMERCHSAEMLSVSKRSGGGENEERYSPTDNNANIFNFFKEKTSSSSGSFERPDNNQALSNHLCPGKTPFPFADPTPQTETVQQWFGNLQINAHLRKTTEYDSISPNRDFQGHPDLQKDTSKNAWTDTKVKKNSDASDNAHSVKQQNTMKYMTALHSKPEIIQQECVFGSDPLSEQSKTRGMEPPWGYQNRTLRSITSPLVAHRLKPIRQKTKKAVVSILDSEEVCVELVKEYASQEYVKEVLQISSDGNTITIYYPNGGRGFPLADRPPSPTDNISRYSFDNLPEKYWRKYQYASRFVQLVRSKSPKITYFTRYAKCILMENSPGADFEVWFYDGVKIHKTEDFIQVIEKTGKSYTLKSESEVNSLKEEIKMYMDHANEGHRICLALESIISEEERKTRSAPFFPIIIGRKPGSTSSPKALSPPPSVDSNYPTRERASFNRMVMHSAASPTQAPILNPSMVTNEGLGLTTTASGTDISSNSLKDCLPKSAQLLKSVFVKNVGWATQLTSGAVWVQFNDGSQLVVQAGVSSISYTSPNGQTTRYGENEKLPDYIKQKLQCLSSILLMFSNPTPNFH
The assay is described as follows: Selectivity interaction (Ambit kinase binding assay panel) EUB0000608a PLK4. The conditions noted are these: at 10 µM.

In assay [3] the target is T3, Dual specificity protein kinase TTK (Homo sapiens) (UniProt P33981).
T3 sequence (whole entry): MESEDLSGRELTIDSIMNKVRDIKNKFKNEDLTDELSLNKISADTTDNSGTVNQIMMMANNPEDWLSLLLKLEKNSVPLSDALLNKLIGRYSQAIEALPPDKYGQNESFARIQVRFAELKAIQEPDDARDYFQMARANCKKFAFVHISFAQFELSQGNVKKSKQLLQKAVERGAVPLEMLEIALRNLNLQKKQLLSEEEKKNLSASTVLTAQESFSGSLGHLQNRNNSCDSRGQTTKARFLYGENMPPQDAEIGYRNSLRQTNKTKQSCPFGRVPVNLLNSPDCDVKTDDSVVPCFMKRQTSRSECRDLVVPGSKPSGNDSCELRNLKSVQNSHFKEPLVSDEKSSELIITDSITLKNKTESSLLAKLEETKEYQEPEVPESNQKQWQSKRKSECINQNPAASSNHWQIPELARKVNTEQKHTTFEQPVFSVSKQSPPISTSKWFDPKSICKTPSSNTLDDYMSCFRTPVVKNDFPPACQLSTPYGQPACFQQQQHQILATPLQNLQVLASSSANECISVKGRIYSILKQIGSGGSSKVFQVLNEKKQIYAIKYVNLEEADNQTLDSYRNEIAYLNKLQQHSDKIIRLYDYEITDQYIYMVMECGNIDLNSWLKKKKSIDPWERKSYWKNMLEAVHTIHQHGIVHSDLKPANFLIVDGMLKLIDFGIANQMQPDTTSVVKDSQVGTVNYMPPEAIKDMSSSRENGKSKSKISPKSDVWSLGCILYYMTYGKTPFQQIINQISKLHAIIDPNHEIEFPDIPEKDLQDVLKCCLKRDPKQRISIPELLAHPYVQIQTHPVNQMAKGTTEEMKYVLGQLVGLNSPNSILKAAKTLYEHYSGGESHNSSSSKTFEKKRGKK
The assay is described as follows: Selectivity interaction (Ambit kinase binding assay panel) EUB0000608a TTK. Particulars: at 10 µM.

The target in the next assay is Focal adhesion kinase 1 (Homo sapiens, UniProt Q05397). The assay is described as follows: Selectivity interaction (Ambit kinase binding assay panel) EUB0000608a PTK2. Particulars: at 10 µM.
Assay [4] deals with Receptor-type tyrosine-protein kinase FLT3 (Homo sapiens) (UniProt P36888). The assay is described as follows: Selectivity interaction (Ambit kinase binding assay panel) EUB0000608a FLT3. The conditions noted are these: at 10 µM.
Assay [5] addresses Serine/threonine-protein kinase PLK3 (Homo sapiens, UniProt Q9H4B4). The assay is described as follows: Selectivity interaction (Ambit kinase binding assay panel) EUB0000608a PLK3. Particulars: at 10 µM.
In assay [6] the target is RAF proto-oncogene serine/threonine-protein kinase (Homo sapiens) (UniProt P04049). The conditions noted are these: at 1 µM.
The target in assay [7] is Vascular endothelial growth factor receptor 1 (Homo sapiens) (UniProt P17948). The conditions noted are these: at 1 µM.
For the next assay, the target named is Misshapen-like kinase 1 (Homo sapiens, UniProt Q8N4C8). The conditions noted are these: at 1 µM.
Assay [8] deals with Platelet-derived growth factor receptor alpha (Homo sapiens, UniProt P16234). The conditions noted are these: at 1 µM.
For assay [9], the target named is Vascular endothelial growth factor receptor 2 (Homo sapiens, UniProt P35968). Particulars: at 1 µM.
Assay [10] addresses Vascular endothelial growth factor receptor 3 (Homo sapiens, UniProt P35916). Particulars: at 1 µM.
In assay [11] the test system is Platelet-derived growth factor receptor alpha (Homo sapiens), P16234 [V561D]. Particulars: at 1 µM.
Assay [12] concerns the target Mitogen-activated protein kinase kinase kinase kinase 4 (Homo sapiens, UniProt O95819). Particulars: at 1 µM.
For assay [13], the target named is Receptor-interacting serine/threonine-protein kinase 2 (Homo sapiens, UniProt O43353). The conditions noted are these: at 1 µM.
In assay [14] the target is NT-3 growth factor receptor (Homo sapiens, UniProt Q16288). The assay is described as follows: Selectivity interaction (SelectScreen kinase panel (Invitrogen)) EUB0000133b NTRK3. The conditions noted are these: at 1 µM.
In assay [15] the target is Ephrin type-A receptor 2 (Homo sapiens) (UniProt P29317). The assay is described as follows: Selectivity interaction (SelectScreen kinase panel (Invitrogen)) EUB0000133b EPHA2. Particulars: at 1 µM.
The target of assay [16] is Fibroblast growth factor receptor 2 (Homo sapiens) (UniProt P21802). The assay is described as follows: Selectivity interaction (SelectScreen kinase panel (Invitrogen)) EUB0000133b FGFR2. Particulars: at 1 µM.
The target of assay [17] is Calcium/calmodulin-dependent protein kinase type II subunit alpha (Homo sapiens, UniProt Q9UQM7). The assay is described as follows: Selectivity interaction (SelectScreen kinase panel (Invitrogen)) EUB0000133b CAMK2A. Particulars: at 1 µM.
Assay [18] deals with MAP kinase-activated protein kinase 3 (Homo sapiens) (UniProt Q16644). The assay is described as follows: Selectivity interaction (SelectScreen kinase panel (Invitrogen)) EUB0000133b MAPKAPK3. The conditions noted are these: at 1 µM.
In assay [19] the target is Tyrosine-protein kinase Blk (Homo sapiens) (UniProt P51451). The assay is described as follows: Selectivity interaction (SelectScreen kinase panel (Invitrogen)) EUB0000133b BLK. Particulars: at 1 µM.
A further assay has as its target Ephrin type-A receptor 4 (Homo sapiens, UniProt P54764). The assay is described as follows: Selectivity interaction (SelectScreen kinase panel (Invitrogen)) EUB0000133b EPHA4. The conditions noted are these: at 1 µM.
In assay [20] the target is Tyrosine-protein kinase Fgr (Homo sapiens) (UniProt P09769). The assay is described as follows: Selectivity interaction (SelectScreen kinase panel (Invitrogen)) EUB0000133b FGR. Particulars: at 1 µM.
Tyrosine-protein kinase Fgr (Homo sapiens), sequence (P09769 2-529 limits assumed): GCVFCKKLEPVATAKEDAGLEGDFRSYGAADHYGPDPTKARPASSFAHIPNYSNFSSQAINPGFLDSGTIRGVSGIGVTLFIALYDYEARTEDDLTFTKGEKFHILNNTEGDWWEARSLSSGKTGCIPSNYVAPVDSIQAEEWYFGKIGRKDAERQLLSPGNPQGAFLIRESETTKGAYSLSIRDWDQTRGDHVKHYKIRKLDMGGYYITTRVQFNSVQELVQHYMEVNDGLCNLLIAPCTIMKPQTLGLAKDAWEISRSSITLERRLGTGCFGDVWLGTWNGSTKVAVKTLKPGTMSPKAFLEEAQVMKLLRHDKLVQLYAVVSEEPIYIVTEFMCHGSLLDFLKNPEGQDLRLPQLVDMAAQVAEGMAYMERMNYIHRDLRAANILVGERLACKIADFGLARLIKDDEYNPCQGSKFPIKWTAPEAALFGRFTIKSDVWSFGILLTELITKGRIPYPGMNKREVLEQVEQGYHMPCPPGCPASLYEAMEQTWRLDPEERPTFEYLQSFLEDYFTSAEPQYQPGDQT

Vascular endothelial growth factor receptor 1 (Homo sapiens), sequence (P17948 whole entry): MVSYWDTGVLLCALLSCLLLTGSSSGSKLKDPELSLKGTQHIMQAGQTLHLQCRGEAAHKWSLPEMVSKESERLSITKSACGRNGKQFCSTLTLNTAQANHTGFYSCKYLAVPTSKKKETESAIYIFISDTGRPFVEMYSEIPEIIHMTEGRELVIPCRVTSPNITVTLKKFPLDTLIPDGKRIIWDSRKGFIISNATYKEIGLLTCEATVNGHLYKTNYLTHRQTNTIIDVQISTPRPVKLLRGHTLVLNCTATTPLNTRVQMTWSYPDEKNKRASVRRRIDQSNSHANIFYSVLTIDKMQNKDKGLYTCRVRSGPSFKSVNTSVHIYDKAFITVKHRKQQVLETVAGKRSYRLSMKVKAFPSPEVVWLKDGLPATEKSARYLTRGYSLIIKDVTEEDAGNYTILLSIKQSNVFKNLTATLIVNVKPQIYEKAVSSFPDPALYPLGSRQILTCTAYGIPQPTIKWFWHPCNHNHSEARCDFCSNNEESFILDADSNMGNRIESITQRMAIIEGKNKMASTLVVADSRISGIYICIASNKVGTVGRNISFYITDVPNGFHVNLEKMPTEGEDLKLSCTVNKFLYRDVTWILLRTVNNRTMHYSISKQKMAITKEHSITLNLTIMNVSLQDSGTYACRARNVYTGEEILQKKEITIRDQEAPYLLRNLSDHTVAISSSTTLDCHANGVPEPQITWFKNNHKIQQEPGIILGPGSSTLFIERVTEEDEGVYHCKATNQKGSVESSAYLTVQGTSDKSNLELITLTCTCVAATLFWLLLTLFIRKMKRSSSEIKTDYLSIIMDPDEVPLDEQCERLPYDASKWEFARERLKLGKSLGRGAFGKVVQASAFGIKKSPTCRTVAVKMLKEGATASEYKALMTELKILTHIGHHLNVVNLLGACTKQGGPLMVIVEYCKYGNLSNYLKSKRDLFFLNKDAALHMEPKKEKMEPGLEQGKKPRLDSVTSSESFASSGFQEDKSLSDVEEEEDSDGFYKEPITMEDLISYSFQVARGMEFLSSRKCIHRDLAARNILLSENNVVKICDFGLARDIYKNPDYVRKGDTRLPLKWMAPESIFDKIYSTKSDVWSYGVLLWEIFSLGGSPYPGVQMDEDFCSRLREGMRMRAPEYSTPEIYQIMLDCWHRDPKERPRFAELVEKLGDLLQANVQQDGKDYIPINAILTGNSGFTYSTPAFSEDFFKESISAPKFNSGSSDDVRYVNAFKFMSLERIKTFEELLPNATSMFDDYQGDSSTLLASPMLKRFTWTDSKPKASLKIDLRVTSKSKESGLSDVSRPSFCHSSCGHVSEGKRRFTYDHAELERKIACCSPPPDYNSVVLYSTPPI
Receptor-interacting serine/threonine-protein kinase 2, sequence (O43353 whole entry): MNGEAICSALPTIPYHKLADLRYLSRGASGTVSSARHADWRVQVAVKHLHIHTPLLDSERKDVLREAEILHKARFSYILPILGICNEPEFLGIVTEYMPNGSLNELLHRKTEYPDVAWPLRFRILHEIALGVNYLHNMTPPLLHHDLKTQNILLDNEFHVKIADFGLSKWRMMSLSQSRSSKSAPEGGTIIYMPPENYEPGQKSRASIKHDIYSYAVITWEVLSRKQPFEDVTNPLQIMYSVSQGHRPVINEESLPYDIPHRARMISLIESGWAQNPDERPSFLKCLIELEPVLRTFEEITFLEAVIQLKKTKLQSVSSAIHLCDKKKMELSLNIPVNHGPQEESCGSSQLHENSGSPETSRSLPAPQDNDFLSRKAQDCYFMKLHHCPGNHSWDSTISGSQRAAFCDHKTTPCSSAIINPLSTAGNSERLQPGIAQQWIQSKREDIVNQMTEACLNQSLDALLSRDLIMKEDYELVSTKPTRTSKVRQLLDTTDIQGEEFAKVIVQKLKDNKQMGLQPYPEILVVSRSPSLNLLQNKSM
MAP kinase-activated protein kinase 3 (Homo sapiens), sequence (Q16644 whole entry, looked up): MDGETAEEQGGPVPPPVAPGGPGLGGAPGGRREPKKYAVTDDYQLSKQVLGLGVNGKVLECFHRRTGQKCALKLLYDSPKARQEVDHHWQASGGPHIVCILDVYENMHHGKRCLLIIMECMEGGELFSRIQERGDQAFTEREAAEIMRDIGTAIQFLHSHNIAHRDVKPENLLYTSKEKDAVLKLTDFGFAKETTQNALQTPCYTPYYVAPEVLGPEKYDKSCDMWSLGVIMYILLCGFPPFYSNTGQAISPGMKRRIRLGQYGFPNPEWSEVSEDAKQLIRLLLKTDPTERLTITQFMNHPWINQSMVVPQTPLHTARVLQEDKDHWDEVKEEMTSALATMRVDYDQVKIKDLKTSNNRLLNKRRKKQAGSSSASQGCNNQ
Vascular endothelial growth factor receptor 3, sequence (P35916 whole entry): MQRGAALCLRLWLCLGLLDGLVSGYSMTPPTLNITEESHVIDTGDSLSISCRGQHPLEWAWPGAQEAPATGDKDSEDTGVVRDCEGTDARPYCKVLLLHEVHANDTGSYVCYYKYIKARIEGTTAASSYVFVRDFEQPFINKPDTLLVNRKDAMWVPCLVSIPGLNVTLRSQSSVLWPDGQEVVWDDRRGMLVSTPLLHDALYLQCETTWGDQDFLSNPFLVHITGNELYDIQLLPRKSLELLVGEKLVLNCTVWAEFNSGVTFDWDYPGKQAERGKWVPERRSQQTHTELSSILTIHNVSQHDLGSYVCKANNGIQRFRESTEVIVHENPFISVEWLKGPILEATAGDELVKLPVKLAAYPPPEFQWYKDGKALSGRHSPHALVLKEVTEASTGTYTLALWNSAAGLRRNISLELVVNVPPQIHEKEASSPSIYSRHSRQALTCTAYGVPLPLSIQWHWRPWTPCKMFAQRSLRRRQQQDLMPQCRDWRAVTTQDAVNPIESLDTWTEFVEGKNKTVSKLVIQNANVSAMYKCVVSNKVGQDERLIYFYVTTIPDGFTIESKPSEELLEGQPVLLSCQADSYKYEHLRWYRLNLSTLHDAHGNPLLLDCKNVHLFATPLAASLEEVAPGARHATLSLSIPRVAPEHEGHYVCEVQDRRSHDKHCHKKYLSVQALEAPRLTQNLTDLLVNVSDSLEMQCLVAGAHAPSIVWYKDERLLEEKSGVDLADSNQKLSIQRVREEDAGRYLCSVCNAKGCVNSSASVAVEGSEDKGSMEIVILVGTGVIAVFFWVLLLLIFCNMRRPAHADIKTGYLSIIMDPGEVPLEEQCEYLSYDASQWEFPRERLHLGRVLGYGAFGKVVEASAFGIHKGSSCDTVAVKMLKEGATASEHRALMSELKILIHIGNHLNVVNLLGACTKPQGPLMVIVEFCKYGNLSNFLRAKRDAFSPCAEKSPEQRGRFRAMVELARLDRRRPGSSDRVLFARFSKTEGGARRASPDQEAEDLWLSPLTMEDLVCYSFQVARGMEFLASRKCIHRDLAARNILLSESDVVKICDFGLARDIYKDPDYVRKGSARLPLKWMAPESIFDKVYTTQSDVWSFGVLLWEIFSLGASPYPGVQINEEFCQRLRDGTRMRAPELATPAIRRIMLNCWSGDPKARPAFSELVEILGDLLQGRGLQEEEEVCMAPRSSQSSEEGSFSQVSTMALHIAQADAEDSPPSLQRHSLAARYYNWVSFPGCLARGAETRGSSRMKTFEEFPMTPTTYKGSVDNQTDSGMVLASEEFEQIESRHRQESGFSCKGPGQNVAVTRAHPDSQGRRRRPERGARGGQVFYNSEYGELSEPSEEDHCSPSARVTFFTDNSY
Serine/threonine-protein kinase PLK3, sequence (Q9H4B4 whole entry, looked up): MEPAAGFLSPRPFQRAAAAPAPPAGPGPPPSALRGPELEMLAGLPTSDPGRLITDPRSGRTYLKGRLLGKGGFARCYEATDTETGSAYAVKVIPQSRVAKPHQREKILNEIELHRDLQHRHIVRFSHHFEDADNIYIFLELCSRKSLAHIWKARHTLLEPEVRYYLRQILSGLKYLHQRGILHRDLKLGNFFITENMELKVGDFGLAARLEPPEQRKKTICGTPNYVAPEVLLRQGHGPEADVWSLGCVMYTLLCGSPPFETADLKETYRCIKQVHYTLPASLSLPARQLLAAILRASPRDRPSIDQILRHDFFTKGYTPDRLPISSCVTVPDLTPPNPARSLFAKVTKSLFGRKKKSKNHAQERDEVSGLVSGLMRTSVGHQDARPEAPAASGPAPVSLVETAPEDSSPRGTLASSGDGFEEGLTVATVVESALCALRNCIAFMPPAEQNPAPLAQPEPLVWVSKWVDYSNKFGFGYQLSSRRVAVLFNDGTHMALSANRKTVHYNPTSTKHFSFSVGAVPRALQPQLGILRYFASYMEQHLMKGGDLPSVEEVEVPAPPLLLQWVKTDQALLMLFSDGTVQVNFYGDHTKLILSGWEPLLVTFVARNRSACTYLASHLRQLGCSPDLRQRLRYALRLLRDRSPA

With `CCOc1cc(N2CCC(O)CC2)ccc1Nc1ncc2c(n1)N(C1CCCC1)CCC(=O)N2C`, the % of control in [1] was 2%; in assay [2], 27%; in [3] it was 3.2%; on Focal adhesion kinase 1 it was 24%; in assay [4], 0%; in [5], 15%.

For the compound `OCCn1cc(-c2ccc3c(c2)CCC3=NO)c(-c2ccncc2)n1`, the % of control in assay [6] amounted to 8%.

Regarding `Cc1cccc(-c2[nH]c(CNc3ccccc3F)nc2-c2ccc3ncnn3c2)n1`, the % of residual activity in [7] was 38%; on Misshapen-like kinase 1 it was 21%; in [8], 47%; in [9] it was 11%; in assay [10], 28%; in [11] it was 43%. Moreover, the % of residual activity in [12] is 41%; in [13], 7%.

`COc1cc(Nc2ncc3c(n2)-c2ccc(Cl)cc2C(c2c(F)cccc2OC)=NC3)ccc1C(=O)O`: the % of inhibition in [14] came to 91%; in assay [15] it was 100%; in assay [16], 90%; in [17] it was 95%; in assay [18], 91%; in assay [19] it was 92%. The % of inhibition at Ephrin type-A receptor 4 is 94%; in assay [20], 97%.
